# Test system: 439559-082-T-J2-PDC spheroid viability
# Assay: Anticancer human tumor 439559-082-T-J2-PDC patient-derived colon adenocarcinoma cell line growth inhibition [POLQ]
# Conditions: spheroids with HUVEC and MSC; for IC50: curve of first compound; for viability, T/C: stronger effect = lower value
# Procedure, shortened: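 Patient-derived tumour cells were co-cultured with HUVEC and mesenchymal stem cells as multicellular spheroids at 37 °C. They were treated with POLQ inhibitors (novobiocin, ART-558, RP6685) alone or combined with other agents. Top concentrations were at or near clinical Cmax (otherwise 10 microM; SN-38 at 1 microM), decreasing in half-log steps.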
# [1] = second compound 0.0316 µM, first compound 0.0316 µM
# [2] = second compound 0.0316 µM, first compound 0.1 µM
# [3] = second compound 0.0316 µM, first compound 0.316 µM
# [4] = second compound 0.0316 µM, first compound 1 µM
# [5] = second compound 0.1 µM, first compound 0.0316 µM
# [6] = second compound 0.1 µM, first compound 0.1 µM
# [7] = second compound 0.1 µM, first compound 0.316 µM
# [8] = second compound 0.1 µM, first compound 1 µM
# [9] = second compound 0.316 µM, first compound 0.0316 µM
# [10] = second compound 0.316 µM, first compound 0.1 µM
# [11] = second compound 0.316 µM, first compound 0.316 µM
# [12] = second compound 0.316 µM, first compound 1 µM
# [13] = second compound 1 µM, first compound 0.0316 µM
# [14] = second compound 1 µM, first compound 0.1 µM
# [15] = second compound 1 µM, first compound 0.316 µM
# [16] = second compound 1 µM, first compound 1 µM
# [17] = second compound 3.16 µM, first compound 0.0316 µM
# [18] = second compound 3.16 µM, first compound 0.1 µM
# [19] = second compound 3.16 µM, first compound 0.316 µM
# [20] = second compound 3.16 µM, first compound 1 µM
# [21] = second compound 10 µM, first compound 0.0316 µM
# [22] = second compound 10 µM, first compound 0.1 µM
# [23] = second compound 10 µM, first compound 0.316 µM
# [24] = second compound 10 µM, first compound 1 µM
# [25] = second compound 0.0316 µM, first compound 0.00316 µM
# [26] = second compound 0.0316 µM, first compound 0.01 µM
# [27] = second compound 0.1 µM, first compound 0.00316 µM
# [28] = second compound 0.1 µM, first compound 0.01 µM
# [29] = second compound 0.316 µM, first compound 0.00316 µM
# [30] = second compound 0.316 µM, first compound 0.01 µM
# [31] = second compound 1 µM, first compound 0.00316 µM
# [32] = second compound 1 µM, first compound 0.01 µM
# [33] = second compound 3.16 µM, first compound 0.00316 µM
# [34] = second compound 3.16 µM, first compound 0.01 µM
# [35] = second compound 10 µM, first compound 0.00316 µM
# [36] = second compound 10 µM, first compound 0.01 µM
# 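Also: spheroids exposed to compounds for seven days before readout.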
# 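For viability, T/C in this document: 100% = DMSO vehicle control viability.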
structure (smiles),measurement,setting,value
O=c1[nH]cc(F)c(=O)[nH]1 + COC1C(OC(N)=O)C(O)C(Oc2ccc3c(O)c(NC(=O)c4ccc(O)c(CC=C(C)C)c4)c(=O)oc3c2C)OC1(C)C,IC50,second compound 0.0316 µM,> 10000 nM
same,IC50,second compound 0.1 µM,> 10000 nM
same,IC50,second compound 0.316 µM,> 10000 nM
same,IC50,second compound 1 µM,> 10000 nM
same,IC50,second compound 3.16 µM,> 10000 nM
same,IC50,second compound 10 µM,> 10000 nM
same,"viability, T/C",[1],92.1%
same,"viability, T/C",[2],94.8%
same,"viability, T/C",[3],80.5%
same,"viability, T/C",[4],74.8%
same,"viability, T/C","second compound 0.0316 µM, first compound 3.16 µM",72.9%
same,"viability, T/C","second compound 0.0316 µM, first compound 10 µM",70.1%
same,"viability, T/C",[5],103%
same,"viability, T/C",[6],99.7%
same,"viability, T/C",[7],85.9%
same,"viability, T/C",[8],72.3%
same,"viability, T/C","second compound 0.1 µM, first compound 3.16 µM",69.8%
same,"viability, T/C","second compound 0.1 µM, first compound 10 µM",70.1%
same,"viability, T/C",[9],108%
same,"viability, T/C",[10],97.5%
same,"viability, T/C",[11],83.4%
same,"viability, T/C",[12],74.1%
same,"viability, T/C","second compound 0.316 µM, first compound 3.16 µM",72.8%
same,"viability, T/C","second compound 0.316 µM, first compound 10 µM",66.8%
same,"viability, T/C",[13],103%
same,"viability, T/C",[14],96.7%
same,"viability, T/C",[15],79.9%
same,"viability, T/C",[16],75.5%
same,"viability, T/C","second compound 1 µM, first compound 3.16 µM",68.2%
same,"viability, T/C","second compound 1 µM, first compound 10 µM",66.9%
same,"viability, T/C",[17],97.8%
same,"viability, T/C",[18],98.3%
same,"viability, T/C",[19],83.9%
same,"viability, T/C",[20],73.2%
same,"viability, T/C","second compound 3.16 µM, first compound 3.16 µM",69.1%
same,"viability, T/C","second compound 3.16 µM, first compound 10 µM",61.6%
same,"viability, T/C",[21],104%
same,"viability, T/C",[22],88.9%
same,"viability, T/C",[23],80.9%
same,"viability, T/C",[24],69.7%
same,"viability, T/C","second compound 10 µM, first compound 3.16 µM",70.1%
same,"viability, T/C","second compound 10 µM, first compound 10 µM",64.3%
C=CCn1c(=O)c2cnc(Nc3ccc(N4CCN(C)CC4)cc3)nc2n1-c1cccc(C(C)(C)O)n1 + COC1C(OC(N)=O)C(O)C(Oc2ccc3c(O)c(NC(=O)c4ccc(O)c(CC=C(C)C)c4)c(=O)oc3c2C)OC1(C)C,IC50,second compound 0.0316 µM,> 1000 nM
same,IC50,second compound 0.1 µM,> 1000 nM
same,IC50,second compound 0.316 µM,> 1000 nM
same,IC50,second compound 1 µM,> 1000 nM
same,IC50,second compound 3.16 µM,> 1000 nM
same,IC50,second compound 10 µM,> 1000 nM
same,"viability, T/C",[25],98.7%
same,"viability, T/C",[26],104%
same,"viability, T/C",[1],102%
same,"viability, T/C",[2],101%
same,"viability, T/C",[3],96.1%
same,"viability, T/C",[4],80.7%
same,"viability, T/C",[27],112%
same,"viability, T/C",[28],106%
same,"viability, T/C",[5],102%
same,"viability, T/C",[6],102%
same,"viability, T/C",[7],91%
same,"viability, T/C",[8],79.1%
same,"viability, T/C",[29],102%
same,"viability, T/C",[30],102%
same,"viability, T/C",[9],105%
same,"viability, T/C",[10],101%
same,"viability, T/C",[11],94.5%
same,"viability, T/C",[12],86.3%
same,"viability, T/C",[31],106%
same,"viability, T/C",[32],104%
same,"viability, T/C",[13],100%
same,"viability, T/C",[14],97.3%
same,"viability, T/C",[15],94.8%
same,"viability, T/C",[16],76.3%
same,"viability, T/C",[33],101%
same,"viability, T/C",[34],101%
same,"viability, T/C",[17],97.2%
same,"viability, T/C",[18],94.6%
same,"viability, T/C",[19],102%
same,"viability, T/C",[20],85.6%
same,"viability, T/C",[35],100%
same,"viability, T/C",[36],93.8%
same,"viability, T/C",[21],97.9%
same,"viability, T/C",[22],109%
same,"viability, T/C",[23],94.8%
same,"viability, T/C",[24],72.2%
CCc1c2c(nc3ccc(O)cc13)-c1cc3c(c(=O)n1C2)COC(=O)[C@]3(O)CC + Cc1cccc(N(C)C(=O)C2C(O)CCN2c2nc(C)cc(C(F)(F)F)c2C#N)c1,IC50,second compound 0.0316 µM,739 nM
same,IC50,second compound 0.1 µM,705 nM
same,IC50,second compound 0.316 µM,698 nM
same,IC50,second compound 1 µM,708 nM
same,IC50,second compound 3.16 µM,968 nM
same,IC50,second compound 10 µM,702 nM
same,"viability, T/C",[25],92.9%
same,"viability, T/C",[26],82.2%
same,"viability, T/C",[1],70.8%
same,"viability, T/C",[2],74.7%
same,"viability, T/C",[3],64%
same,"viability, T/C",[4],43.2%
same,"viability, T/C",[27],90.9%
same,"viability, T/C",[28],87%
same,"viability, T/C",[5],74.5%
same,"viability, T/C",[6],68.3%
same,"viability, T/C",[7],65.7%
same,"viability, T/C",[8],42.8%
same,"viability, T/C",[29],95.3%
same,"viability, T/C",[30],82.2%
same,"viability, T/C",[9],76.3%
same,"viability, T/C",[10],70.6%
same,"viability, T/C",[11],63%
same,"viability, T/C",[12],42.9%
same,"viability, T/C",[31],90.9%
same,"viability, T/C",[32],90.9%
same,"viability, T/C",[13],74%
same,"viability, T/C",[14],67.1%
same,"viability, T/C",[15],62.5%
same,"viability, T/C",[16],44.9%
same,"viability, T/C",[33],90.3%
same,"viability, T/C",[34],76.8%
same,"viability, T/C",[17],72.1%
same,"viability, T/C",[18],71%
same,"viability, T/C",[19],62.8%
same,"viability, T/C",[20],47.2%
same,"viability, T/C",[35],80.6%
same,"viability, T/C",[36],76.3%
same,"viability, T/C",[21],66.9%
same,"viability, T/C",[22],68.4%
same,"viability, T/C",[23],60.5%
same,"viability, T/C",[24],44.9%

# — PubChem BioAssay AID1963841 (Molecular Pharmacology Branch, DTP, NCI, 2024)
